The results in this text go back to ChEMBL document CHEMBL1201862, “PubChem BioAssay data set” (2004).

In experiment [1] the target is 5-hydroxytryptamine receptor 5A (Homo sapiens, UniProt P47898). Briefly: Counterscreen for agonists of OPRM1-OPRD1 heterodimerization: luminescence-based cell-based high throughput dose response assay to identify agonists of 5-hydroxytryptamine (serotonin) 5A receptor (HTR5A). [Related pubchem assays (depositor defined):AID504326, AID504355, AID504692, AID504904, AID504905]. Format: functional. (A counterscreen serves to expose hits that act by an unwanted route or on another target.)

Experiment [2] concerns the target T1, Mu-type opioid receptor (Homo sapiens, UniProt P35372). Briefly: Counterscreen for agonists of heterodimerization of the mu 1 (OPRM1) and delta 1 (OPRD1) opioid receptors: Luminescence-based cell-based high throughput dose response assay to identify agonists of OPRM1 homodimerization. Format: functional.
Experiment [3] deals with T2, Delta-type opioid receptor (Homo sapiens, UniProt P41143). Briefly: Counterscreen for agonists of heterodimerization of the mu 1 (OPRM1) and delta 1 (OPRD1) opioid receptors: Luminescence-based cell-based high throughput dose response assay to identify agonists of OPRD1 homodimerization. [Related pubchem assays (depositor defined):AID504326, AID504355, AID504692, AID504904, AID504905]. It is filed as functional.

Experiment [4] concerns the target T3, Tyrosine-protein phosphatase non-receptor type 22 (Homo sapiens, UniProt Q9Y2R2).
T3 sequence (Q9Y2R2 whole entry): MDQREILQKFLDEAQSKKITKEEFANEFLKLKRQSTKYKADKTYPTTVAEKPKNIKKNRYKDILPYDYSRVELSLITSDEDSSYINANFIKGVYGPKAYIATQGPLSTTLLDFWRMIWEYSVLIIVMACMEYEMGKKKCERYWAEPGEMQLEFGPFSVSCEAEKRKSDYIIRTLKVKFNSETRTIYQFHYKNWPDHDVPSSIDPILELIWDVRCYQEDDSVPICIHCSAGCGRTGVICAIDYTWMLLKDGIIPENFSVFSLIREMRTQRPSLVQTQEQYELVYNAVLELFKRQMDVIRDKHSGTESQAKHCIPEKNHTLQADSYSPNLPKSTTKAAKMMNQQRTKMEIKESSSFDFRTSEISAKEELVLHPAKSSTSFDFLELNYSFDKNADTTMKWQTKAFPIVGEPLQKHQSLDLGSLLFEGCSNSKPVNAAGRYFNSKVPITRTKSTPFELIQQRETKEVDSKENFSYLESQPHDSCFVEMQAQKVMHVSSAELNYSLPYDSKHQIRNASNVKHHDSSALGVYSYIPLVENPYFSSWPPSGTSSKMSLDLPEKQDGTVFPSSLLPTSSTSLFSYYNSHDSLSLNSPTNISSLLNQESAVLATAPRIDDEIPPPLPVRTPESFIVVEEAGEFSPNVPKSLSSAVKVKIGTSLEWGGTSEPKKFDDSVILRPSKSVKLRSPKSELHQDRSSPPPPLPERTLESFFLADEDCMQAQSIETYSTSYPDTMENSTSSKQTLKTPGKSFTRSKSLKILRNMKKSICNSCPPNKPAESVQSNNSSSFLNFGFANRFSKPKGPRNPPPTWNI
Format: functional.

The target in experiment [5] is T3, Tyrosine-protein phosphatase non-receptor type 22. It is filed as functional. The source holds these as a separate data set.
The target of experiment [6] is T4, Tyrosine-protein phosphatase non-receptor type 7 (Homo sapiens, UniProt P35236).
T4 sequence (P35236 whole entry): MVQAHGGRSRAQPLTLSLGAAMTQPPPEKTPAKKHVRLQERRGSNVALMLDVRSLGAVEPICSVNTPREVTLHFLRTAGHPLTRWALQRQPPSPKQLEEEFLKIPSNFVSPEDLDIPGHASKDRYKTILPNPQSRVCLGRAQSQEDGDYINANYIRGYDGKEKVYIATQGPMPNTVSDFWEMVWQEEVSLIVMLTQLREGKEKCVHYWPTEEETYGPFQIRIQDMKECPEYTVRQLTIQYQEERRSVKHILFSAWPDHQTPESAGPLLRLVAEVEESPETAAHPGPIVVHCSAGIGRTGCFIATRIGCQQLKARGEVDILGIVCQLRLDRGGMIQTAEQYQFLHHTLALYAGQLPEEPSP
Format: functional.

The next experiment deals with T5, Cysteine protease ATG4B (Homo sapiens, UniProt Q9Y4P1).
T5 sequence (Q9Y4P1 whole entry): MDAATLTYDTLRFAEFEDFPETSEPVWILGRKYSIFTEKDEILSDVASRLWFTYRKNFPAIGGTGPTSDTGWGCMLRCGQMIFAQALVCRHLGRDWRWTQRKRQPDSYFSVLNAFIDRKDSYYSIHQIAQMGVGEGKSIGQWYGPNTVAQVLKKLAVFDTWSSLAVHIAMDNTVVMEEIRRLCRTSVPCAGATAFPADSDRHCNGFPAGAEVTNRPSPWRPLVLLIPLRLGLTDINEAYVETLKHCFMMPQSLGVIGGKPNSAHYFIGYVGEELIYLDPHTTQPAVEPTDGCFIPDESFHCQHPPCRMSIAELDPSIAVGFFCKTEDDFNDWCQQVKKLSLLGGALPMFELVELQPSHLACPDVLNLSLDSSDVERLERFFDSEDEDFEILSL
Briefly: ATG4B protease inhibitors, dose response, biochemical, fluorescence, set 2 (AID 588584). Format: functional.

The next experiment concerns the target Phospholipase A2 (Homo sapiens, UniProt P04054). Briefly: PLA2 enzyme inhibitors, dose response, counter-screen for ATG4B inhibitor project, biochemical, set 2 (AID 588586). It is filed as functional.
In a further experiment the target is Beta-galactosidase (Escherichia coli, UniProt Q8VNN2). Format: functional.
Experiment [7] has as its target T2, Delta-type opioid receptor. Briefly: HTS Image-Based Screen for Antagonists of the DOR Receptor. [Related pubchem assays (depositor defined):AID1777, AID1785, AID1786, AID2133]. Format: functional.
For experiment [8], the target named is T6, Kappa-type opioid receptor (Homo sapiens, UniProt P41145). Format: functional.
For experiment [9], the target named is T1, Mu-type opioid receptor. Briefly: HTS Image-Based Screen for Agonists of the MOR Receptor. [Related pubchem assays (depositor defined):AID1777, AID1785, AID1786, AID2133]. It is filed as functional.
In experiment [10] the target is T6, Kappa-type opioid receptor. It is filed as functional. This is another data set of the same source.
Experiment [11] concerns the target T2, Delta-type opioid receptor. Briefly: HTS Image-Based Screen for Agonists of the DOR Receptor. [Related pubchem assays (depositor defined):AID1777, AID1786, AID2133]. Format: functional.
For experiment [12], the target named is T7, G-protein coupled receptor 35 (Homo sapiens, UniProt Q9HC97). Briefly: SAR analysis of Antagonists of the GPR35 Receptor using an Image-Based Assay - Set 6. [Related pubchem assays (depositor defined):AID2013, AID2026]. Format: functional.
Experiment [13] deals with T8, Probable nicotinate-nucleotide adenylyltransferase (Staphylococcus aureus (strain N315), UniProt P65502). It is filed as functional, Staphylococcus aureus subsp. aureus N315. Particulars: read-out: IC50_Mean.
For experiment [14], the target named is T9, Cannabinoid receptor 1 (Homo sapiens, UniProt P21554). Briefly: SAR analysis of antagonists of the Cannabinoid Receptor 1 using an Image-Based Assay - Set 4. [Related pubchem assays (depositor defined):AID2013, AID2026]. It is filed as functional.
For experiment [15], the target named is G-protein coupled receptor 55 (Homo sapiens, UniProt Q9Y2T6). Briefly: SAR Analysis of Selective Antagonists of GPR55 using an Image-Based Assay - Set 4. [Related pubchem assays (depositor defined):AID2013, AID2026]. It is filed as functional.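 Note: antagonism of response to 5 µM lysophosphatidylinositol agonist.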
Experiment [16] has as its target T10, Cannabinoid receptor 2 (Homo sapiens, UniProt P34972). Briefly: SAR analysis of antagonists of the Cannabinoid Receptor 2 using an Image-Based Assay - Set 3. [Related pubchem assays (depositor defined):AID2013, AID2026]. Format: functional.
Experiment [17] addresses T10, Cannabinoid receptor 2. Briefly: SAR analysis of agonists of the Cannabinoid Receptor 2 using an Image-Based Assay - Set 3. [Related pubchem assays (depositor defined):AID2013, AID2026]. It is filed as functional.
For experiment [18], the target named is T8, Probable nicotinate-nucleotide adenylyltransferase. It is filed as functional, Staphylococcus aureus subsp. aureus N315.
For experiment [19], the target named is T9, Cannabinoid receptor 1. Briefly: SAR analysis of agonists of the Cannabinoid Receptor 1 using an Image-Based Assay - Set 4. [Related pubchem assays (depositor defined):AID2013, AID2026]. Format: functional.
For experiment [20], the target named is T7, G-protein coupled receptor 35. Briefly: SAR analysis of Agonists of the GPR35 Receptor using an Image-Based Assay - Set 4. [Related pubchem assays (depositor defined):AID2013, AID2026]. Format: functional.

Calls of active or inactive are those of the source. Some results are limits rather than exact numbers.
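Throughout, for IC50 Mean: confirmatory dose-response retesting of NadD inhibitor hits first found in an ultra-high-throughput screen.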

T6 sequence (P41145 whole entry): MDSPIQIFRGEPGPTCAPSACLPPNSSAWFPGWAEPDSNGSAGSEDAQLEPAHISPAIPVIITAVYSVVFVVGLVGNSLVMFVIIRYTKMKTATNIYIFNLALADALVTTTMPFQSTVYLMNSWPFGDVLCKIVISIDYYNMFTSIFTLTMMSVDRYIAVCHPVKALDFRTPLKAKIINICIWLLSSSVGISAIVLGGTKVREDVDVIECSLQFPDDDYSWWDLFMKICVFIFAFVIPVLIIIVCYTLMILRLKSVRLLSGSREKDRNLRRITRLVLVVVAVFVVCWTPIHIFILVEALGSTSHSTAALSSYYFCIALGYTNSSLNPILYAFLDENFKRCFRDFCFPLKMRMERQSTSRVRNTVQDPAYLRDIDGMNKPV
T2 sequence (P41143 whole entry): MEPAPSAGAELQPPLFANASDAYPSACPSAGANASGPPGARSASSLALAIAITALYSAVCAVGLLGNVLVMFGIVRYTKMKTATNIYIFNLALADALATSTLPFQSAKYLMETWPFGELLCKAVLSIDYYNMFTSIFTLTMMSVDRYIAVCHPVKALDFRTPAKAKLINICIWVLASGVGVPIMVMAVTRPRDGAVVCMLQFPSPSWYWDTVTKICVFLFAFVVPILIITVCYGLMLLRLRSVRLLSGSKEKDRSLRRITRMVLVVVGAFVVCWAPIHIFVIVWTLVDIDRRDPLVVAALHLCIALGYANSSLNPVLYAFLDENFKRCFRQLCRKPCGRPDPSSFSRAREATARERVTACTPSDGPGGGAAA
T1 sequence (P35372 whole entry): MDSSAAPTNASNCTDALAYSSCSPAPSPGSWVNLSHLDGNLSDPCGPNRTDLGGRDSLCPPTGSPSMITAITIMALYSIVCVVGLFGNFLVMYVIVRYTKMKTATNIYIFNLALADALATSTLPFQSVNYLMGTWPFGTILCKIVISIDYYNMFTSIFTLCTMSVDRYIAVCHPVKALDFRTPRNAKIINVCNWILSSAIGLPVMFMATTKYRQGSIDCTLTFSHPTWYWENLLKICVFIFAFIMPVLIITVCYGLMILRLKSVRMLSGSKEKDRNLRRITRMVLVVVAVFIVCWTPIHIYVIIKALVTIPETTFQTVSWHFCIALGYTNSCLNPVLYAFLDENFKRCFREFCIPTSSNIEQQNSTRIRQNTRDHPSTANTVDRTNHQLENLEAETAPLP
T8 sequence (P65502 whole entry): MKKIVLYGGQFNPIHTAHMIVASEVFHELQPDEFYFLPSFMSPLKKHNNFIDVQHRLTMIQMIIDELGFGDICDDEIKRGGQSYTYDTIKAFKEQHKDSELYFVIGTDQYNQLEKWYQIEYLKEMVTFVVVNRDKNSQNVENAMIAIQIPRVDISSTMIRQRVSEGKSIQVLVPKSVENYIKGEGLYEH
Beta-galactosidase, sequence (Q8VNN2 whole entry): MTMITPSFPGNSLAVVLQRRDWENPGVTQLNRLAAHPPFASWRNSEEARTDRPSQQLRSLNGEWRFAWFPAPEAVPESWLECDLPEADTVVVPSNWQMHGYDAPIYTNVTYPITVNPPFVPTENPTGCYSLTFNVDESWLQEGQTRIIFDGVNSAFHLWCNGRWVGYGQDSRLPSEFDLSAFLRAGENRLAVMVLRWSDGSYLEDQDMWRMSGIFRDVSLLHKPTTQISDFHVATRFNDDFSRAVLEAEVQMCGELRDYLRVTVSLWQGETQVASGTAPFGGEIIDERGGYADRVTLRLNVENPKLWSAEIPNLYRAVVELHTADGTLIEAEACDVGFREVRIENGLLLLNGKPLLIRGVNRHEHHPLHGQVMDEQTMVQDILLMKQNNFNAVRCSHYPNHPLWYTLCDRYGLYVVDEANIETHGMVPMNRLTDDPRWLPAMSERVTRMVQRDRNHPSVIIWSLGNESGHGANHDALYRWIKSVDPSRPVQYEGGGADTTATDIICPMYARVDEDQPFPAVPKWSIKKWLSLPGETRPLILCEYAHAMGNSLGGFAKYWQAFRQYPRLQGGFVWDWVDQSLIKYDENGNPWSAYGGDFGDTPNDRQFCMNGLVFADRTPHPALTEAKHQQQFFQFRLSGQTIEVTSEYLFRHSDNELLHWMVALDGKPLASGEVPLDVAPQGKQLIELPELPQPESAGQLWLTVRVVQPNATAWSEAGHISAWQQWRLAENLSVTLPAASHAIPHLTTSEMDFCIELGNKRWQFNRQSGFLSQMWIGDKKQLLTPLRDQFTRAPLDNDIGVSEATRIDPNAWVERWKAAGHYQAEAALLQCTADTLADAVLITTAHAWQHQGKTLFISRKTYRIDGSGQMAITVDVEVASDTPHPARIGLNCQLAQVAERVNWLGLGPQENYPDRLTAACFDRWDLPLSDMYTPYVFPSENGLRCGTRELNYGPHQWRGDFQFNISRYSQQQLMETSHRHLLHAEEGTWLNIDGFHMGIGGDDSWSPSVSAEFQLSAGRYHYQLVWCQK
T9 sequence (P21554 whole entry): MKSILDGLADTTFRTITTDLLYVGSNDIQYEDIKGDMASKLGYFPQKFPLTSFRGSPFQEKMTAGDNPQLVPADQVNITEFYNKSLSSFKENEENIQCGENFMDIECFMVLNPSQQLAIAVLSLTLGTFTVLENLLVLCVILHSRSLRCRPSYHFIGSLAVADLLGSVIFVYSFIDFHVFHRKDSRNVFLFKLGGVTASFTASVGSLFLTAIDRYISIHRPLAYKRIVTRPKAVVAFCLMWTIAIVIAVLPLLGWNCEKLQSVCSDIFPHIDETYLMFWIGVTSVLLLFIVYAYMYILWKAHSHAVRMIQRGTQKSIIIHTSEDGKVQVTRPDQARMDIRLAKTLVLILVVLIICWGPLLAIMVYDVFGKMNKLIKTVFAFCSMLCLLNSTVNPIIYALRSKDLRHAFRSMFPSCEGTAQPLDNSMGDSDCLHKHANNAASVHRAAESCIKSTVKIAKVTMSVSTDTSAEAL
T7 sequence (Q9HC97 whole entry): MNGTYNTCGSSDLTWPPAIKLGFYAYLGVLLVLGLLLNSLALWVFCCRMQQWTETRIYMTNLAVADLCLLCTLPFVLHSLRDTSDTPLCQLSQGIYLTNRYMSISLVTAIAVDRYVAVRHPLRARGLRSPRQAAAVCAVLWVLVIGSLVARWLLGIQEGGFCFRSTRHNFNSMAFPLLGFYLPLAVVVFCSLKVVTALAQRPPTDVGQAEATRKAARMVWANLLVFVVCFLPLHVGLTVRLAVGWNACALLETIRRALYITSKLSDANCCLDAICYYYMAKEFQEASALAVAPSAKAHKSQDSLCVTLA
T10 sequence (P34972 whole entry): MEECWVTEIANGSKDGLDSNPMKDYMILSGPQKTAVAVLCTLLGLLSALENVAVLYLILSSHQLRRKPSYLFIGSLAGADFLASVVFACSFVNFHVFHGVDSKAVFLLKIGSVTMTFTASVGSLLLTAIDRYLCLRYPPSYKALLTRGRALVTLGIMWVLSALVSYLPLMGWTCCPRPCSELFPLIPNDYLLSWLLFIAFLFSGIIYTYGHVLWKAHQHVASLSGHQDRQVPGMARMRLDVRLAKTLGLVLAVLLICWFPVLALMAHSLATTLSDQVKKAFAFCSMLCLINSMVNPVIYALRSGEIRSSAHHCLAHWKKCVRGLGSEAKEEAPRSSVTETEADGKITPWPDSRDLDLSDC
G-protein coupled receptor 55, sequence (Q9Y2T6 whole entry): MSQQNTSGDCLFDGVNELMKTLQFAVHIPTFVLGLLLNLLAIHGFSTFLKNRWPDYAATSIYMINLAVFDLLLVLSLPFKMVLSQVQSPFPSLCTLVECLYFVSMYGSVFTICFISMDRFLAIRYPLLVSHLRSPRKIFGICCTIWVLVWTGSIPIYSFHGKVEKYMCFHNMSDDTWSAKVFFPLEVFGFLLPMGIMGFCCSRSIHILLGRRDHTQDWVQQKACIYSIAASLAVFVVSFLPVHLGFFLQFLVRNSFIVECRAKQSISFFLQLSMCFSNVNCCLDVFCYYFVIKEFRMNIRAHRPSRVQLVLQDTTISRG
Phospholipase A2, sequence (P04054 whole entry): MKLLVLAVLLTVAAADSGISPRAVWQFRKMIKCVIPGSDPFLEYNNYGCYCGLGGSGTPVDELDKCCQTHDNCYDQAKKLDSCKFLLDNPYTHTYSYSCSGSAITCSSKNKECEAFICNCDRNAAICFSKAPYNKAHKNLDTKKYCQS
5-hydroxytryptamine receptor 5A, sequence (P47898 whole entry): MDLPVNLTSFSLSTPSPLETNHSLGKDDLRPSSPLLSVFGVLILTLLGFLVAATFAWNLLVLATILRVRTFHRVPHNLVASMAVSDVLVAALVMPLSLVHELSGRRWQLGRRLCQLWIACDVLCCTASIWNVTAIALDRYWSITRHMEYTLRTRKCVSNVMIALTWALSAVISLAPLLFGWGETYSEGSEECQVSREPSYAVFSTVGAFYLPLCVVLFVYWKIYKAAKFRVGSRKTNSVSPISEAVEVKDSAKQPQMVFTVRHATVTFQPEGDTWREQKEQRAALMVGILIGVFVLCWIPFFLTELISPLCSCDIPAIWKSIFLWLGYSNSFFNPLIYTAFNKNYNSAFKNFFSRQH

As to `CN(C)C(CNC(=O)c1cc2ccccc2o1)c1ccco1` (configuration not stated), the EC50 (in experiment [1]; at Mu-type opioid receptor [2]; in experiment [3]) was > 92.5 µM (inactive) in each case.
On to `CS(=O)(=O)N1CCc2ccc(NC(=O)C3CCCO3)cc2C1` (configuration not stated), for which the IC50 in experiment [4], in experiment [5] and in [6] was > 79.4 µM (inactive) each time.
With `O=C(C1CCN(c2ncnc3c2nc2n3CCCCC2)CC1)N1CCN(c2cccc(Cl)c2)CC1`, the IC50 at Cysteine protease ATG4B was 22.6 µM (inactive); on Phospholipase A2, 11.1 µM (active).
Take `CCOc1ccc2nc(N3C(=O)CNC3=S)sc2c1`: the EC50 (usually the concentration giving half of the maximal effect) on Beta-galactosidase is > 31.5 µM (inactive); on Mu-type opioid receptor [9] it was > 32 µM (inactive); in experiment [11], > 32 µM (inactive). The IC50 in experiment [7] was > 32 µM (inactive); in experiment [8], more than 32 µM; in experiment [10] it was 16.4 µM (active).
As for `COC(=O)N/N=C(\C)c1ccc2ccccc2c1OC(F)F`, the IC50 in experiment [4], in experiment [5] and in [6] was > 79.4 µM (inactive) each time.
Turning to `O=C(Nc1ccc(S(=O)(=O)Nc2nccs2)cc1)c1cc(-c2ccccc2)nc2ccccc12`, the IC50 in [12] is > 32 µM (inactive); in [13], 20 µM (active); on Cannabinoid receptor 1 [14], 4.77 µM (active); in experiment [15], 5.75 µM (active); on Cannabinoid receptor 2 [16] it was > 32 µM (inactive); in [18] it was 6.12 µM (active). In addition, the EC50 (on Cannabinoid receptor 2 [17]; at Cannabinoid receptor 1 [19]; in experiment [20]) was > 32 µM (inactive) in each case.
With `Cc1ccc(CN2C3CCCC2CC(NC(=O)c2ccc(F)cc2)C3)cc1` (configuration not stated), the EC50 on Beta-galactosidase is > 31.5 µM (inactive); on Mu-type opioid receptor [9] it was > 32 µM (inactive); in experiment [11] it was > 32 µM (inactive). For the same molecule, the values for the IC50 in experiment [7], in experiment [8] and in [10] were > 32 µM (inactive), 3.7 µM and 7.7 µM (active), respectively.
